In patent US6455540B1, “Methods of use of quinolone compounds against anaerobic pathogenic bacteria” (priority 1999, dated 2002):
In brackets after ≈: the same amount, converted by molar mass.

What was measured:
Assay in all cases: Agar dilution MIC
[1] = system: Bacteroides ureolyticus; assay type: cell-based; conditions: 17 isolates
[2] = system: Porphyromonas macaccae; assay type: cell-based; conditions: Porphyromonas, read-out: Minimal Inhibitory Concentration 50% (MIC50); 13 isolates
[3] = system: Actinomyces odontolyticus; assay type: cell-based; conditions: Schaalia odontolytica, 10 isolates
[4] = system: Clostridium dfficile; assay type: cell-based, Clostridium difficile; conditions: 14 isolates
[5] = system: Porphyromonas gingivalis; assay type: cell-based; conditions: Porphyromonas gingivalis, 13 isolates
[6] = system: Peptostreptococcus asaccharolyticus; assay type: cell-based; conditions: Peptoniphilus asaccharolyticus, 11 isolates
[7] = system: Veillonella spp.; assay type: cell-based; conditions: 24 isolates
[8] = system: Peptostreptococcus prevotii; assay type: cell-based; conditions: Anaerococcus prevotii, read-out: Minimal Inhibitory Concentration 50% (MIC50); 9 isolates
[9] = system: Clostridium clostridioforme; assay type: cell-based; conditions: 11 isolates
[10] = system: Fusobacterium spp. group 2; assay type: cell-based, Fusobacterium mortiferum, necrogenes, ulcerans; conditions: Fusobacterium, 12 isolates
[11] = system: Anaerobiospirillum thomasii; assay type: cell-based; conditions: 13 isolates
[12] = system: Fusobacterium russii; assay type: cell-based; conditions: Fusobacterium russii; read-out: Minimal Inhibitory Concentration 90% (MIC90)
[13] = system: Peptostreptococcus micros; assay type: cell-based; conditions: 12 isolates
[14] = system: Porphyromonas spp.; assay type: cell-based, Porphyromonas cangingivalis, cansulci, circumdentaria, levii; conditions: Porphyromonas, read-out: Minimal Inhibitory Concentration 50% (MIC50); 11 isolates
[15] = system: Clostridium ramosum; assay type: cell-based; conditions: 10 isolates
[16] = system: Bacteroides tectum; assay type: cell-based; conditions: Bacteroides pyogenes, 22 isolates
[17] = system: Prevotella heparinolytica; assay type: cell-based; conditions: 16 isolates
[18] = system: Prevotella melaninogenica; assay type: cell-based; conditions: Prevotella melaninogenica, 12 isolates
[19] = system: Fusobacterium varium; assay type: cell-based; conditions: Fusobacterium varium, 17 isolates
[20] = system: Prevotella buccae-oris group; assay type: cell-based; conditions: 22 isolates
[21] = system: Peptostreptococcus magnus; assay type: cell-based; conditions: 13 isolates
[22] = system: Prevotella denticola/loeschii group; assay type: cell-based; conditions: 6 isolates
[23] = system: Clostridium inocuum; assay type: cell-based, Clostridium innocuum; conditions: 11 isolates
[24] = system: Fusobacterium spp group 1; assay type: cell-based; conditions: Fusobacterium, 19 isolates
[25] = system: Actinomyces israelii; assay type: cell-based; conditions: 6 isolates
[26] = system: Prevotella bivia; assay type: cell-based; conditions: 21 isolates
[27] = system: Prevotella intermedia; assay type: cell-based; conditions: 11 isolates
[28] = system: Porphyromonas asaccharolyticus; assay type: cell-based, Porphyromonas asaccharolytica; conditions: Porphyromonas, 11 isolates
[29] = system: Anaerobiospirillum succiniciproducens; assay type: cell-based; conditions: 3 isolates
[30] = system: Bacteroides gracilis; assay type: cell-based, Bacteroides gracilis (Campylobacter gracilis); conditions: Campylobacter gracilis, 11 isolates
[31] = system: Porphyromonas canoris; assay type: cell-based; conditions: Porphyromonas canoris, 10 isolates
[32] = read-out: Minimal Inhibitory Concentration 90% (MIC90)
[33] = read-out: Minimal Inhibitory Concentration 50% (MIC50)
[34] = Clostridium, read-out: Minimal Inhibitory Concentration 90% (MIC90)

SMILES: Cc1ncc([N+](=O)[O-])n1CCO [Metronidazole]
- Minimal Inhibitory Concentration Range [1]: 0.06 to 2 µg/mL
- MIC90 ([1]; Campylobacter ureolyticus, read-out: Minimal Inhibitory Concentration 90% (MIC90)): 1 µg/mL (≈ 5.84 µM)
- MIC50 ([1]; Campylobacter ureolyticus, read-out: Minimal Inhibitory Concentration 50% (MIC50)): 0.25 µg/mL (≈ 1.46 µM)
- MIC50 [2]: 0.06 µg/mL (≈ 0.351 µM)
- MIC90 [3, 32]: 32 µg/mL (≈ 187 µM)
- MIC50 [3, 33]: 16 µg/mL (≈ 93.5 µM)
- Minimal Inhibitory Concentration Range [4]: 0.25 to 1 µg/mL
- MIC50 [5, 33]: ≤ 0.015 µg/mL
- MIC90 [5, 32]: 0.03 µg/mL (≈ 0.175 µM)
- MIC50 [6, 33]: 0.5 µg/mL (≈ 2.92 µM)
- MIC90 [6, 32]: 1 µg/mL (≈ 5.84 µM)
- Minimal Inhibitory Concentration Range [7]: 0.25 to 2 µg/mL
- MIC90 ([7]; Veillonella, read-out: Minimal Inhibitory Concentration 90% (MIC90)): 2 µg/mL (≈ 11.7 µM)
- MIC50 ([7]; Veillonella, read-out: Minimal Inhibitory Concentration 50% (MIC50)): 1 µg/mL (≈ 5.84 µM)
- MIC50 [8]: 0.5 µg/mL (≈ 2.92 µM)
- Minimal Inhibitory Concentration Range [9]: 0.03 to 1 µg/mL
- MIC90 [9, 34]: 0.5 µg/mL (≈ 2.92 µM)
- MIC50 [10, 33]: 0.5 µg/mL (≈ 2.92 µM)
- MIC90 [10, 32]: 1 µg/mL (≈ 5.84 µM)
- Minimal Inhibitory Concentration Range [11]: 1 to 4 µg/mL
- MIC50 ([11]; Anaerobiospirillum thomasii, read-out: Minimal Inhibitory Concentration 50% (MIC50)): 2 µg/mL (≈ 11.7 µM)
- MIC90 ([11]; Anaerobiospirillum thomasii, read-out: Minimal Inhibitory Concentration 90% (MIC90)): 4 µg/mL (≈ 23.4 µM)
- MIC90 [12]: 0.25 µg/mL (≈ 1.46 µM)
- Minimal Inhibitory Concentration Range [13]: 0.03 to 0.25 µg/mL
- MIC50 ([13]; Parvimonas micra, read-out: Minimal Inhibitory Concentration 50% (MIC50)): 0.25 µg/mL (≈ 1.46 µM)
- MIC90 ([13]; Parvimonas micra, read-out: Minimal Inhibitory Concentration 90% (MIC90)): 0.25 µg/mL (≈ 1.46 µM)
- MIC50 [14]: 0.03 µg/mL (≈ 0.175 µM)
- Minimal Inhibitory Concentration Range [15]: 1 µg/mL
- MIC50 ([15]; Thomasclavelia ramosa, read-out: Minimal Inhibitory Concentration 50% (MIC50)): 1 µg/mL (≈ 5.84 µM)
- MIC90 ([15]; Thomasclavelia ramosa, read-out: Minimal Inhibitory Concentration 90% (MIC90)): 1 µg/mL (≈ 5.84 µM)
- MIC90 [16, 32]: 0.5 µg/mL (≈ 2.92 µM)
- MIC50 [16, 33]: 0.5 µg/mL (≈ 2.92 µM)
- Minimal Inhibitory Concentration Range [17]: 0.06 to 1 µg/mL
- MIC90 ([17]; Prevotella heparinolytica, read-out: Minimal Inhibitory Concentration 90% (MIC90)): 1 µg/mL (≈ 5.84 µM)
- MIC50 ([17]; Prevotella heparinolytica, read-out: Minimal Inhibitory Concentration 50% (MIC50)): 0.5 µg/mL (≈ 2.92 µM)
- MIC90 [18, 32]: 1 µg/mL (≈ 5.84 µM)
- MIC50 [18, 33]: 0.5 µg/mL (≈ 2.92 µM)
- MIC50 [19, 33]: 1 µg/mL (≈ 5.84 µM)
- MIC90 [19, 32]: 2 µg/mL (≈ 11.7 µM)
- Minimal Inhibitory Concentration Range [20]: 0.5 to 4 µg/mL
- MIC90 ([20]; Prevotella, read-out: Minimal Inhibitory Concentration 90% (MIC90)): 2 µg/mL (≈ 11.7 µM)
- MIC50 ([20]; Prevotella, read-out: Minimal Inhibitory Concentration 50% (MIC50)): 1 µg/mL (≈ 5.84 µM)
- Minimal Inhibitory Concentration Range [21]: 0.25 to 2 µg/mL
- MIC50 ([21]; Finegoldia magna, read-out: Minimal Inhibitory Concentration 50% (MIC50)): 0.5 µg/mL (≈ 2.92 µM)
- MIC90 ([21]; Finegoldia magna, read-out: Minimal Inhibitory Concentration 90% (MIC90)): 0.5 µg/mL (≈ 2.92 µM)
- Minimal Inhibitory Concentration Range [22]: 0.5 to 1 µg/mL
- MIC50 ([22]; Prevotella denticola, read-out: Minimal Inhibitory Concentration 50% (MIC50)): 1 µg/mL (≈ 5.84 µM)
- Minimal Inhibitory Concentration Range [23]: 0.5 to 2 µg/mL
- MIC90 [23, 34]: 1 µg/mL (≈ 5.84 µM)
- MIC50 ([23]; Clostridium, read-out: Minimal Inhibitory Concentration 50% (MIC50)): 0.5 µg/mL (≈ 2.92 µM)
- MIC50 ([24]; GROUP1, read-out: Minimal Inhibitory Concentration 50% (MIC50)): 0.25 µg/mL (≈ 1.46 µM)
- MIC90 ([24]; GROUP1, read-out: Minimal Inhibitory Concentration 90% (MIC90)): 4 µg/mL (≈ 23.4 µM)
- Minimal Inhibitory Concentration Range [25]: 1 to 32 µg/mL
- MIC50 ([25]; Actinomyces israelii, read-out: Minimal Inhibitory Concentration 50% (MIC50)): 4 µg/mL (≈ 23.4 µM)
- Minimal Inhibitory Concentration Range [26]: 0.5 to 4 µg/mL
- MIC90 ([26]; Prevotella bivia, read-out: Minimal Inhibitory Concentration 90% (MIC90)): 4 µg/mL (≈ 23.4 µM)
- MIC50 ([26]; Prevotella bivia, read-out: Minimal Inhibitory Concentration 50% (MIC50)): 2 µg/mL (≈ 11.7 µM)
- Minimal Inhibitory Concentration Range [27]: 0.03 to 1 µg/mL
- MIC90 ([27]; Prevotella intermedia, read-out: Minimal Inhibitory Concentration 90% (MIC90)): 1 µg/mL (≈ 5.84 µM)
- MIC50 ([27]; Prevotella intermedia, read-out: Minimal Inhibitory Concentration 50% (MIC50)): 0.5 µg/mL (≈ 2.92 µM)
- MIC50 [28, 33]: ≤ 0.015 µg/mL
- MIC90 [28, 32]: ≤ 0.015 µg/mL
- Minimal Inhibitory Concentration Range [29]: 4 to 8 µg/mL
- MIC50 ([29]; Anaerobiospirillum succiniciproducens, read-out: Minimal Inhibitory Concentration 50% (MIC50)): 8 µg/mL (≈ 46.7 µM)
- MIC90 [30, 32]: > 32 µg/mL
- MIC50 [30, 33]: 0.5 µg/mL (≈ 2.92 µM)
- MIC50 [31, 33]: 0.25 µg/mL (≈ 1.46 µM)
- MIC90 [31, 32]: 0.25 µg/mL (≈ 1.46 µM)
